The test system of the test is Setaria lutescens. Briefly: Herbicidal action (field trials), post-emergence treatment, visual scoring of damage. It counts as in vivo. As to the method:
The seeds or rhizome pieces of typical harmful plants were planted and grown under natural field conditions. After the harmful plants had emerged, they were treated, as a rule at the 2-to 8-leaf stage, with various dosages of the compositions according to the invention at a water application rate of 100 to 400 I/ha (converted).
After the treatment (approx. 4-6 weeks after application), the herbidical activity of the active ingredients or active ingredient mixtures was scored visually by comparing the treated plots with the untreated control plots. Damage and development of all aerial parts of the plants was recorded. Scoring was done on a percentage scale (100% action=all plants dead; 50% action=50% of the plants and green plant parts dead; 0% action=no discernible action=like control plot). The score figures of in each case 4 plots was averaged.
The results are shown in the tables which follow, the action when using active ingredients A and B independently being stated in brackets.

Structures are written as SMILES.

Consider `COc1cc(OC)nc(Sc2cccc(Cl)c2C(=O)[O-])n1.[Na+]` [Pyrithiobac (B2.7), sodium 2-chloro-6-(4,6-dimethoxypyrimidin-2-ylthio)benzoate, reference compound], for which the “Herbicidal effect on Setaria lutescens Damage in %” value (from here on “Herbicidal effect … in %”) (Table 4, 105 gAS/ha, treatment at the 6-8 leaf stage, scoring 27 days after application) came out at 25%.

As to `CCOc1nc(NC)nc(NC(=O)NS(=O)(=O)c2ccccc2C(=O)OC)n1` [ethametsulfuron (B2.6), methyl 2-{N-[N-(4-ethoxy-6-methylamino-1,3,5-triazin-2-yl)-aminocarbonyl]-aminosulfonyl}benzoate, reference compound], the “Herbicidal effect … in %” value (Table 1, 15 gAS/ha, treatment at the 6-8 leaf stage, scoring 27 days after application) came to 33%.

For the compound `CS(=O)(=O)NC(=O)c1cc(Oc2ccc(C(F)(F)F)cc2Cl)ccc1[N+](=O)[O-]` [Fumesafen (B2.9), 5-(2-chloro-α,α,α-trifluoro-p-tolyloxyl)N-methylsulfonyl-2-nitrobenzamide, reference compound], the “Herbicidal effect … in %” value (Table 3, 240 gAS/ha, treatment at the 2-leaf stage, scoring 39 days after application) was determined as 25%.

Regarding `COc1cc(OC)nc(NC(=O)NS(=O)(=O)c2cc(NC=O)ccc2C(=O)N(C)C)n1` [A1.1, N-[N-(4,6-dimethoxypyrimidin-2-yl)-aminocarbonyl]-2-(dimethyl-aminocarbonyl)-5-(formylamino)benzenesulfonamide], the “Herbicidal effect … in %” value came to 30% (Table 1, 35 gAS/ha, treatment at the 6-8 leaf stage, scoring 27 days after application); 97% (Table 1, 70 gAS/ha, treatment at the 6-8 leaf stage, scoring 27 days after application); 30% (Table 2, 35 gSA/ha, treatment at the 6-8 leaf stage, scoring 27 days after application); 97% (Table 2, 70 gSA/ha, treatment at the 6-8 leaf stage, scoring 27 days after application); 65% (Table 3, 35 gAS/ha, treatment at the 2-leaf stage, scoring 39 days after application); 87% (Table 3, 70 gAS/ha, treatment at the 2-leaf stage, scoring 39 days after application). The “Herbicidal effect … in %” value reads like this: (Table 4, 35 gAS/ha, treatment at the 6-8 leaf stage, scoring 27 days after application) 65%; (Table 4, 70 gAS/ha, treatment at the 6-8 leaf stage, scoring 27 days after application) 85%.

The record behind these values is patent US6498126B1, “Herbicide combination with acylated aminophenylsulfonylureas” (Aventis CropScience GmbH, priority 1999, dated 2002).
